This passage reports APTT and Ki results from ChEMBL document CHEMBL1131676, “The discovery of orally available thrombin inhibitors: optimisation of the P1 pharmacophore” (Bioorg Med Chem Lett, 1999).

What is called Ki is the equilibrium dissociation constant of an inhibitor or competing ligand from its target. A lower Ki goes with a stronger hold on the target.

SMILES strings stand for the structures.

The nature of assay [1]: Effect on doubling of human clotting time assay expressed as Activated partial thromboplastin time value (APTT). The assay is classed as functional.
For assay [2], the target named is Prothrombin (Homo sapiens, UniProt P00734). The assay can be described thus: Binding affinity to human thrombin.

Regarding `CCNc1ccc(C[C@H](NS(=O)(=O)c2cnccc2N[C@H](CO)Cc2ccccc2)C(=O)N2CCC(CCF)CC2)cc1`, the APTT in assay [1] was found to be 17.4 µM. In assay [2], this compound registered a Ki of 575 nM.

The compound `O=C([C@H](Cc1ccc(O)c(O)c1)NS(=O)(=O)c1cnccc1N[C@H](CO)Cc1ccccc1)N1CCC(CCF)CC1` registered an APTT in assay [1] of 6.17 µM. Moreover, the Ki in assay [2] amounted to 82 nM.

Take `C[C@H](NS(=O)(=O)c1cnccc1N[C@H](CO)Cc1ccccc1)C(=O)N1CCC(CCF)CC1`: in assay [2], the Ki came to 49900 nM.

As to `N=C(N)NCC[C@H](NS(=O)(=O)c1cnccc1N[C@H](CO)Cc1ccccc1)C(=O)N1CCC(CCF)CC1`, the APTT in assay [1] turned out to be 0.75 µM. In assay [2], this compound came in with an inhibitory constant (Ki) of 16 nM.

In assay [1], `O=C([C@H](Cc1ccccn1)NS(=O)(=O)c1cnccc1N[C@H](CO)Cc1ccccc1)N1CCC(CCF)CC1` showed an APTT of 3.87 µM. Besides, the Ki in assay [2] was 81 nM.

The compound `CNc1ccc([C@H](NS(=O)(=O)c2cnccc2N[C@H](CO)Cc2ccccc2)C(=O)N2CCC(CCF)CC2)cc1` showed an APTT in assay [1] of 4.08 µM. In assay [2], this compound showed a Ki of 12 nM.

`O=C([C@@H](NS(=O)(=O)c1cnccc1N[C@H](CO)Cc1ccccc1)C1CCCCC1)N1CCC(CCF)CC1`: the affinity in assay [2], expressed as Ki, was 11800 nM.

In the case of `O=C([C@H](Cc1cscn1)NS(=O)(=O)c1cnccc1N[C@H](CO)Cc1ccccc1)N1CCC(CCF)CC1`, the APTT in assay [1] is 9.17 µM. In addition, the Ki in assay [2] was determined as 280 nM.

Take `CC(C)[C@H](NS(=O)(=O)c1cnccc1N[C@H](CO)Cc1ccccc1)C(=O)N1CCC(CCF)CC1`: the Ki in assay [2] turned out to be 6510 nM.

In assay [1], `O=C([C@H](Cc1cccnc1)NS(=O)(=O)c1cnccc1N[C@H](CO)Cc1ccccc1)N1CCC(CCF)CC1` displayed an APTT of 20.33 µM. This compound yielded a Ki in assay [2] of 1610 nM.

In assay [2], `NCCCC[C@H](NS(=O)(=O)c1cnccc1N[C@H](CO)Cc1ccccc1)C(=O)N1CCC(CCF)CC1` came in with a Ki of 1800 nM.

For the compound `O=C([C@H](Cc1ccccc1)NS(=O)(=O)c1cnccc1N[C@H](CO)Cc1ccccc1)N1CCC(CCF)CC1`, in assay [1], the APTT stood at 11 µM. In assay [2], this compound gave a Ki of 100 nM.

On to `CC(C)C[C@H](NS(=O)(=O)c1cnccc1N[C@H](CO)Cc1ccccc1)C(=O)N1CCC(CCF)CC1`, for which the affinity in assay [2], expressed as Ki, was 11900 nM.

`Nc1cc(C[C@H](NS(=O)(=O)c2cnccc2N[C@H](CO)Cc2ccccc2)C(=O)N2CCC(CCF)CC2)ccc1O` yielded an APTT in assay [1] of 1.53 µM. In assay [2], this compound showed a Ki of 26 nM.

Consider `O=C([C@@H](NS(=O)(=O)c1cnccc1N[C@H](CO)Cc1ccccc1)c1ccncc1)N1CCC(CCF)CC1`, for which, in assay [2], the affinity, expressed as Ki, was 1540 nM.

With `O=C([C@H](Cc1ccc(O)cc1)NS(=O)(=O)c1cnccc1N[C@H](CO)Cc1ccccc1)N1CCC(CCF)CC1`, the APTT in assay [1] was found to be 1.91 µM. In assay [2], this compound gave a Ki of 41 nM.

`O=C([C@H](Cc1ccc2ccccc2c1)NS(=O)(=O)c1cnccc1N[C@H](CO)Cc1ccccc1)N1CCC(CCF)CC1` displayed an APTT in assay [1] of 26 µM. The compound further had a Ki in assay [2] of 69 nM.

As for `COc1ccc(C[C@H](NS(=O)(=O)c2cnccc2N[C@H](CO)Cc2ccccc2)C(=O)N2CCC(CCF)CC2)cc1`, the APTT in assay [1] stood at 8.013 µM. Moreover, the Ki in assay [2] turned out to be 36 nM.

As to `O=C([C@H](Cc1ccc2c(c1)OCO2)NS(=O)(=O)c1cnccc1N[C@H](CO)Cc1ccccc1)N1CCC(CCF)CC1`, in assay [1], the APTT was 6.39 µM. Besides, the Ki in assay [2] came to 43 nM.
